Values of other authors in patent US4610817A, “N-acyl derivatives of peptides, their preparation and their use in the treatment of disorders, and agents for this purpose” (BASF Aktiengesellschaft, priority 1983, dated 1986).
Where a SMILES comes first, the peptide text is derived from it.

System: tremor, rigor and akinesia in Parkinson patients
Conditions: alone or in combination with L-dopa

SMILES: CC(C)C[C@H](NC(=O)[C@@H]1CCCN1)C(=O)NCC(N)=O [MIF, L-Pro-L-Leu-Gly-NH2] (H-Pro-Leu-Gly-NH2)
- clinical effect on Parkinson symptoms: advantageous effect on tremor, rigor and akinesia
